# Measured values: publication PMC6390472, “‘Second-generation’ 1,2,3-triazole-based inhibitors of Porphyromonas gingivalis adherence to oral streptococci and biofilm formation” (MedChemComm, 2019)
# Test system: P. gingivalis adherence to S. gordonii
# Experiment: Biofilm model of P. gingivalis adherence to S. gordonii (confocal, green/red fluorescence ratio)
# Assay type: cell-based, P. gingivalis ATCC33277 / S. gordonii DL-1
# Conditions: inhibition of P. gingivalis adherence to S. gordonii; concentration that reduced ratio of green to red fluorescence by 50%; tested 0–60 μM
# Procedure: P. gingivalis ATCC33277 was grown in reduced trypticase soy broth (Difco) supplemented with 0.5 percent yeast extract, 1 μg mL^–1 menadione, and 5 μg mL^–1 hemin. Twenty five milliliters of medium were reduced for 24 h under anaerobic conditions by equilibrating in an atmosphere consisting of 10% CO2, 10% H2, and 80% N2. Following equilibration, P. gingivalis was inoculated in the medium and grown for 48 h at 37 °C under anaerobic conditions. S. gordonii DL-1 (1) was cultured aerobically without shaking in brain heart infusion (BHI) broth supplemented with 1 percent yeast extract for 16 hours at 37 °C. For some compounds that inhibited P. gingivalis adherence to S. gordonii, we determined their effect on planktonic growth of P. gingivalis and S. gordonii. The appropriate growth medium (10 ml) was supplemented with 10 μl of a 40 mM compound stock solution in DMSO. After inoculation, broth cultures were incubated as described above and compared to cultures grown in medium that was supplemented only with 0.1% DMSO. The cell density of each culture was determined by measuring the optical density at 600 nm (O.D.600nm) and the percent growth inhibition/stimulation was calculated using the following equation: [(O.D.600nm of the control/O.D.600nm of the culture grown in the presence of compound) – 1] × 100.
# Two species biofilms were formed essentially as previously described.[39] To prepare bacterial cells for biofilm culture, 10 ml of an overnight S. gordonii culture was centrifuged at 5600 rpm for 5 min and the cell pellet was suspended in 1 mL sterile PBS. Subsequently, 20 μL of 5 mg ml^–1 hexidium iodide (Molecular Probes) was added to the cell suspension and incubated for 15 min with gentle shaking at room temperature in the dark. The labeled cells were centrifuged as described above, washed with phosphate-buffered saline (10 mM Na2HPO4, […], […], and 2.7 mM KCl, pH 7.2; [PBS]) and the cell pellet was suspended in PBS at a final O.D.600nm of 0.8. Similarly, 10 mL of a 48 h culture of P. gingivalis was centrifuged at 5600 rpm for 15 min, the cell pellet was suspended in 1 mL PBS and 20 μL of 5(6)-carboxyfluorescein N-hydroxysuccinimide ester (4 mg ml^–1, Molecular Probes, Inc.) was added. After incubation for 30 min with gentle shaking at room temperature in the dark, the suspension was centrifuged and washed as described above and suspended in PBS at a final O.D.600nm of 0.4. For biofilm cultures, 1 mL of labeled S. gordonii cells was added to each well of a 12-well microtiter plate (Greiner Bio-one) containing a circular coverslip (Fisher brand) and incubated in an anaerobic chamber with rotary shaking for 24 h at 37 °C. Unbound cells were removed by aspiration and 1 ml of labeled P. gingivalis cells containing the desired concentration of test compound was added and incubated under anaerobic conditions for 22 h at 37 °C. Test compounds were dissolved in dimethyl sulfoxide (DMSO) to generate 1000× stock solutions and were routinely tested over a final concentration range of 0–60 μM. 1 μL of the appropriate stock solution was added to each 1 mL aliquot of labeled P. gingivalis cells and incubated for 30 min at room temperature prior to adding the suspension to the microtiter plate wells. For control biofilms, 1 μL of DMSO was added to 1 mL of labeled P. gingivalis and incubated as described above.
# To visualize P. gingivalis/S. gordonii biofilms, unbound P. gingivalis cells were removed by aspiration and coverslips were washed once with PBS. Biofilms were fixed by incubating the coverslips with 1 mL of 4% paraformaldehyde for 5 min followed by two washes with PBS. The coverslips were then removed, placed face down on a glass microscope slide containing a drop of antifade reagent (Life Technology) and sealed with nail polish. […]
row,Compound,IC50 [µM]
1,"[O-][S+](Cc1nc(-c2ccccc2)c(-c2ccccc2)o1)c1ccc(-n2cc(-c3cccnc3)nn2)cc1 (stereo not drawn) [Compound 28, 4,5-Diphenyl-2-(((4-(4-(pyridin-3-yl)-1H-1,2,3-triazol-1-yl)phenyl)sulfinyl)methyl) oxazole]",> 60
2,[O-][S+](Cc1nc(-c2ccccc2)c(-c2ccccc2)o1)c1ccc(-n2cc(-c3ccc(F)cc3)nn2)cc1 (stereo not drawn) [Compound 29],> 60
3,[O-][S+](Cc1nc(-c2ccccc2)c(-c2ccccc2)o1)c1ccc(-n2cc(-c3cccc(F)c3)nn2)cc1 (stereo not drawn) [Compound 30],47.3
4,COc1ccccc1-c1cn(-c2ccc([S+]([O-])Cc3nc(-c4ccccc4)c(-c4ccccc4)o3)cc2)nn1 (stereo not drawn) [Compound 31],> 60
5,[O-][S+](Cc1nc(-c2ccccc2)c(-c2ccccc2)o1)c1ccc(-n2cc(-c3ccccc3C(F)(F)F)nn2)cc1 (stereo not drawn) [Compound 32],> 60
6,COc1ccc2cc(-c3cn(-c4ccc([S+]([O-])Cc5nc(-c6ccccc6)c(-c6ccccc6)o5)cc4)nn3)ccc2c1 (stereo not drawn) [Compound 33],> 60
7,CCCCCc1ccc(-c2cn(-c3ccc([S+]([O-])Cc4nc(-c5ccccc5)c(-c5ccccc5)o4)cc3)nn2)cc1 (stereo not drawn) [Compound 34],> 60
8,[O-][S+](Cc1nc(-c2ccccc2)c(-c2ccccc2)o1)c1ccc(-n2cc(-c3ccc(Oc4ccccc4)cc3)nn2)cc1 (stereo not drawn) [Compound 35],> 60
9,[O-][S+](Cc1nc(-c2ccccc2)c(-c2ccccc2)o1)c1ccc(-n2cc(-c3cc(C(F)(F)F)cc(C(F)(F)F)c3)nn2)cc1 (stereo not drawn) [Compound 36],> 60
10,O=S(=O)(Cc1nc(-c2ccccc2)c(-c2ccccc2)o1)c1ccc(-n2cc(-c3cccnc3)nn2)cc1 [Compound 37],> 60
11,O=S(=O)(Cc1nc(-c2ccccc2)c(-c2ccccc2)o1)c1ccc(-n2cc(-c3ccc(F)cc3)nn2)cc1 [Compound 38],15.7
12,O=S(=O)(Cc1nc(-c2ccccc2)c(-c2ccccc2)o1)c1ccc(-n2cc(-c3cccc(F)c3)nn2)cc1 [Compound 39],33.6
13,COc1ccccc1-c1cn(-c2ccc(S(=O)(=O)Cc3nc(-c4ccccc4)c(-c4ccccc4)o3)cc2)nn1 [Compound 40],13.1
14,O=S(=O)(Cc1nc(-c2ccccc2)c(-c2ccccc2)o1)c1ccc(-n2cc(-c3ccccc3C(F)(F)F)nn2)cc1 [Compound 41],> 60
15,COc1ccc2cc(-c3cn(-c4ccc(S(=O)(=O)Cc5nc(-c6ccccc6)c(-c6ccccc6)o5)cc4)nn3)ccc2c1 [Compound 42],> 60
16,CCCCCc1ccc(-c2cn(-c3ccc(S(=O)(=O)Cc4nc(-c5ccccc5)c(-c5ccccc5)o4)cc3)nn2)cc1 [Compound 43],36.6
17,O=S(=O)(Cc1nc(-c2ccccc2)c(-c2ccccc2)o1)c1ccc(-n2cc(-c3ccc(Oc4ccccc4)cc3)nn2)cc1 [Compound 44],16.5
18,O=S(=O)(Cc1nc(-c2ccccc2)c(-c2ccccc2)o1)c1ccc(-n2cc(-c3cc(C(F)(F)F)cc(C(F)(F)F)c3)nn2)cc1 [Compound 45],38.5
19,[O-][S+](Cc1nc(-c2ccc(F)cc2)c(-c2ccc(F)cc2)o1)c1ccc(-n2cc(-c3cccc(F)c3)nn2)cc1 (stereo not drawn) [Compound 46],5.3
20,[O-][S+](Cc1nc(-c2ccc(F)cc2)c(-c2ccc(F)cc2)o1)c1ccc(-n2cc(-c3ccc(F)cc3)nn2)cc1 (stereo not drawn) [Compound 47],35.9
21,COc1ccccc1-c1cn(-c2ccc([S+]([O-])Cc3nc(-c4ccc(F)cc4)c(-c4ccc(F)cc4)o3)cc2)nn1 (stereo not drawn) [Compound 48],7.2
22,[O-][S+](Cc1nc(-c2ccc(Cl)cc2)c(-c2ccc(Cl)cc2)o1)c1ccc(-n2cc(-c3cccc(F)c3)nn2)cc1 (stereo not drawn) [Compound 49],15.1
23,[O-][S+](Cc1nc(-c2ccc(Cl)cc2)c(-c2ccc(Cl)cc2)o1)c1ccc(-n2cc(-c3ccc(F)cc3)nn2)cc1 (stereo not drawn) [Compound 50],39.8

row,Compound,IC50 [µM]
1,COc1ccccc1-c1cn(-c2ccc([S+]([O-])Cc3nc(-c4ccc(Cl)cc4)c(-c4ccc(Cl)cc4)o3)cc2)nn1 (stereo not drawn) [Compound 51],10.2
2,O=S(=O)(Cc1nc(-c2ccc(F)cc2)c(-c2ccc(F)cc2)o1)c1ccc(-n2cc(-c3cccc(F)c3)nn2)cc1 [Compound 52],40
3,O=S(=O)(Cc1nc(-c2ccc(F)cc2)c(-c2ccc(F)cc2)o1)c1ccc(-n2cc(-c3ccc(F)cc3)nn2)cc1 [Compound 53],40
4,O=S(=O)(Cc1nc(-c2ccc(Cl)cc2)c(-c2ccc(Cl)cc2)o1)c1ccc(-n2cc(-c3cccc(F)c3)nn2)cc1 [Compound 55],18.2
5,CCN(CC)c1nc(-c2cn(-c3cccc(-c4nc(-c5ccccc5)c(-c5ccccc5)o4)c3)nn2)nc(N(CC)CC)n1 [Compound 90],20.7
6,CCN(CC)c1nc(-c2cn(-c3ccc(-c4nc(-c5ccccc5)c(-c5ccccc5)o4)cc3)nn2)nc(N(CC)CC)n1 [Compound 91],> 60
7,CCN(CC)c1nc(-c2cn(-c3cccc(-c4nc(-c5ccc(F)cc5)c(-c5ccc(F)cc5)o4)c3)nn2)nc(N(CC)CC)n1 [Compound 92],> 60
8,CCN(CC)c1nc(-c2cn(-c3cccc(-c4nc(-c5ccc(Cl)cc5)c(-c5ccc(Cl)cc5)o4)c3)nn2)nc(N(CC)CC)n1 [Compound 94],16
9,CCN(CC)c1nc(-c2cn(-c3cccc(-c4nc(-c5ccc(OC)cc5)c(-c5ccc(OC)cc5)o4)c3)nn2)nc(N(CC)CC)n1 [Compound 96],> 60
10,CCN(CC)c1nc(-c2cn(-c3ccc(-c4nc(-c5ccc(OC)cc5)c(-c5ccc(OC)cc5)o4)cc3)nn2)nc(N(CC)CC)n1 [Compound 97],36.6
11,CCN(CC)c1nc(-c2cn(-c3cccc(-c4nc(-c5ccco5)c(-c5ccco5)o4)c3)nn2)nc(N(CC)CC)n1 [Compound 98],> 60
12,CCN(CC)c1nc(-c2cn(-c3ccc(-c4nc(-c5ccco5)c(-c5ccco5)o4)cc3)nn2)nc(N(CC)CC)n1 [Compound 99],> 60
13,Fc1ccccc1Nc1nc(Nc2ccccc2F)nc(-c2cn(-c3cccc(-c4nc(-c5ccccc5)c(-c5ccccc5)o4)c3)nn2)n1 [Compound 100],9.6
14,Fc1ccccc1Nc1nc(Nc2ccccc2F)nc(-c2cn(-c3ccc(-c4nc(-c5ccccc5)c(-c5ccccc5)o4)cc3)nn2)n1 [Compound 101],> 60
15,Fc1ccccc1Nc1nc(Nc2ccccc2F)nc(-c2cn(-c3cccc(-c4nc(-c5ccc(Cl)cc5)c(-c5ccc(Cl)cc5)o4)c3)nn2)n1 [Compound 104],33.8
16,Fc1ccccc1Nc1nc(Nc2ccccc2F)nc(-c2cn(-c3ccc(-c4nc(-c5ccc(Cl)cc5)c(-c5ccc(Cl)cc5)o4)cc3)nn2)n1 [Compound 105],> 60
17,COc1ccc(-c2nc(-c3cccc(-n4cc(-c5nc(Nc6ccccc6F)nc(Nc6ccccc6F)n5)nn4)c3)oc2-c2ccc(OC)cc2)cc1 [Compound 106],> 60
18,COc1ccc(-c2nc(-c3ccc(-n4cc(-c5nc(Nc6ccccc6F)nc(Nc6ccccc6F)n5)nn4)cc3)oc2-c2ccc(OC)cc2)cc1 [Compound 107],40
19,Fc1ccccc1Nc1nc(Nc2ccccc2F)nc(-c2cn(-c3cccc(-c4nc(-c5ccco5)c(-c5ccco5)o4)c3)nn2)n1 [Compound 108],> 60
20,Fc1ccccc1Nc1nc(Nc2ccccc2F)nc(-c2cn(-c3ccc(-c4nc(-c5ccco5)c(-c5ccco5)o4)cc3)nn2)n1 [Compound 109],> 60
21,Fc1ccc(Nc2nc(Nc3ccc(F)cc3)nc(-c3cn(-c4ccccc4-c4nc(-c5ccccc5)c(-c5ccccc5)o4)nn3)n2)cc1 [Compound 110],> 60
22,Fc1ccc(Nc2nc(Nc3ccc(F)cc3)nc(-c3cn(-c4ccc(-c5nc(-c6ccccc6)c(-c6ccccc6)o5)cc4)nn3)n2)cc1 [Compound 112],> 60
